Assay results published in patent US6864286B2, “Inhibitors of the EGF-receptor tyrosine kinase and methods for their use” (Parker Hughes Institute, priority 1998, dated 2005).
Entries after “also recorded” stand apart in the source; their conditions may differ.

What was measured:
EGFR tyrosine kinase = biological target: T1, EGFR tyrosine kinase (Homo sapiens, UniProt P00533); assay: Cell-free EGFR immune complex kinase assay; assay type: biochemical; details: EGFR immunoprecipitated from MDA-MB-231 lysates, 1 hour incubation, read-out: EGFR Inhibition IC50
T1 construct: anti-EGFR immunoprecipitates from lysates of MDA-MB-231 human breast cancer cells; endogenous in cells; host or cells: MDA-MB-231 (ATCC HTB-26)
T1 sequence (P00533 25-1210): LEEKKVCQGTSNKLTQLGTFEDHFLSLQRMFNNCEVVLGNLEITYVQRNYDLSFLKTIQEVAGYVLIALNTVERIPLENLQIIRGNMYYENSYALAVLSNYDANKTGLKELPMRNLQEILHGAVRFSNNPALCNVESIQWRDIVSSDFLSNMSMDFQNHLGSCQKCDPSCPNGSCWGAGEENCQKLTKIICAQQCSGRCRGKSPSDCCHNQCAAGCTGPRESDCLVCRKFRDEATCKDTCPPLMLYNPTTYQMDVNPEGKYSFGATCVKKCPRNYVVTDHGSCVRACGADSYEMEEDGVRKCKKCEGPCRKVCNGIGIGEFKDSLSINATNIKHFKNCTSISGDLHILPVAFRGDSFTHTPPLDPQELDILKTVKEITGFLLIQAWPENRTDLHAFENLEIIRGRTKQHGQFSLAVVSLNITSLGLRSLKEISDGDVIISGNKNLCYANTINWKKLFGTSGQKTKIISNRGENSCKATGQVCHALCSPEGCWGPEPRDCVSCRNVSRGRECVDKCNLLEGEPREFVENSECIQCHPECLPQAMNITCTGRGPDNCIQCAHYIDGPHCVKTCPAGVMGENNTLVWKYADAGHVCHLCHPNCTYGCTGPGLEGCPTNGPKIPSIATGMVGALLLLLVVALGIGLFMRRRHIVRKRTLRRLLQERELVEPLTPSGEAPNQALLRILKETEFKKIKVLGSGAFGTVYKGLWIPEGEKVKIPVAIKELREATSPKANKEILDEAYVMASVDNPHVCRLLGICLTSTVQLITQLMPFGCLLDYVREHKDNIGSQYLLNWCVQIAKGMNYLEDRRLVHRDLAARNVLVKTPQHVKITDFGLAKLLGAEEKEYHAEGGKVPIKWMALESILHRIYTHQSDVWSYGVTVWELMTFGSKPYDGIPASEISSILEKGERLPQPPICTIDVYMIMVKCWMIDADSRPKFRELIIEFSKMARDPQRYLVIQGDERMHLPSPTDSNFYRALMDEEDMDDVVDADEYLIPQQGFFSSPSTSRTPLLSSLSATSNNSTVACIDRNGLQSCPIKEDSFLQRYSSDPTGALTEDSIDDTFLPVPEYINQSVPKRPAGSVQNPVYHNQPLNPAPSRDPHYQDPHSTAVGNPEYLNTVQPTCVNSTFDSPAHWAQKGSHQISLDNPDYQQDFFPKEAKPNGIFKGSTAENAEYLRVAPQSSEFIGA
Protocol: For EGFR immune complex kinase assays, 24-hours after treatment with leflunomide analogs, MDA-MB-231 breast cancer cells were stimulated with 20 ng/mL EGF for 5 minutes, lysed in 1% Nonidet-P-40 buffer, and cell lysates were immunoprecipitated with an anti-EGFR antibody reactive with the sequence Ala^351-Asp^364 of the human EGFR (Upstate Biotechnology Inc. [UBI] Catalog # 05-104) (Uckun, F. M., et al. Clin. Can. Res. 1998, 4, 901). EGFR immune complexes were examined for tyrosine phosphorylation by Western blot analysis, as described by Uckun, F. M., et al. Clin. Can. Res. 1998, 4, 901. All anti-phosphotyrosine Western blots were subjected to densitometric scanning using the automated AMBIS system (Automated Microbiology System, Inc., San Diego, Calif.) and for each time point a % inhibition value was determined by comparing the density ratios of the tyrosine phosphorylated EGFR protein bands to those of the baseline sample and using the formula: % Inhibition=100−100×[Density of tyrosine phosphorylated EGFR band]test sample/[Density of tyrosine phosphorylated EGFR band]baseline control sample. The IC50 values were determined using an Inplot program (Graphpad Software, Inc., San Diego, Calif.).
In other experiments, MDA-MB-231 cells were stimulated with 10 ng/ml EGF prior to immunoprecipitation of the EGFR. EGFR immune complexes were incubated for 1 hour at room temperature with various LFM analogs and tyrosine kinase assays were performed in the presence of [γ-^32P]-ATP, as previously described (Uckun, F. M., et al. Clin. Can. Res. 1998, 4, 901; Narla, R. K., et al. Clin. Can. Res 1998, 1405; Uckun, F. M., et al. Science 1996, 22, 1096; Uckun, F. M., et al. Science 1995, 267, 886). The kinase assay gels were analyzed both by autoradiography and using the BioRad Storage Phosphor Imager System (BioRad, Hercules, Calif.) for quantitative scanning.

HCK = biological target: T2, HCK (Homo sapiens, UniProt P08631); assay: Cell-free HCK immune complex kinase assay; assay type: biochemical; details: for effect on enzymatic activity of HCK: at concentrations as high as 350 μM, HCK from transfected COS7 cells
T2 construct: expressed in transfected cells; host or cells: COS-7 simian kidney cells
T2 sequence (P08631 whole entry, species assumed): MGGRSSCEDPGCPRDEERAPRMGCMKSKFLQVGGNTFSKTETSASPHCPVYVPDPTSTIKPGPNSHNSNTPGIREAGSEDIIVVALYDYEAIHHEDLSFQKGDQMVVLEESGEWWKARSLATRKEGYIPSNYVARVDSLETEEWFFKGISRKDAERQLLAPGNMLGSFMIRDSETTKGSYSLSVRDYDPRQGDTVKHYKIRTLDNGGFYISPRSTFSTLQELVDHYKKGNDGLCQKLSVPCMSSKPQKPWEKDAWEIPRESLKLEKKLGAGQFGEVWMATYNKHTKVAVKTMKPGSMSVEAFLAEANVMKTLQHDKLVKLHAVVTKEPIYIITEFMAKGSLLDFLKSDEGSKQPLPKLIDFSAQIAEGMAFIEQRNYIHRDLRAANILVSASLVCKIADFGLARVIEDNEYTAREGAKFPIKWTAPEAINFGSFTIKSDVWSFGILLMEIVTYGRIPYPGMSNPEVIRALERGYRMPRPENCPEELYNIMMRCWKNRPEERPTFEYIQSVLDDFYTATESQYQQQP
Protocol: Immunoprecipitations, immune-complex protein kinase assays, and immunoblotting using the ECL chemiluminescence detection system (Amersham Life Sciences) were conducted as described previously (Vassilev, A., et al. J. Biol. Chem. 1998, in press; Goodman, P. A., et al. J. Biol. Chem. 1998, 273, 17742; Mahajan, S., et al. Mol. Cell. Biol. 1995, 15, 5304; Uckun, F. M., et al. Science 1996, 22, 1096).
For HCK kinase assays, we used HCK-transfected COS-7 cells. The cloning and expression of HCK in COS-7 cells has been described previously (Saouaf, S. J., et al. J. Biol. Chem. 1995, 270, 27072). The pSV7c-HCK plasmid was transfected into 2×10^6 COS-7 cells using Lipofectamine (GIBCO/BRL), and the cells were harvested 48 hours later. The cells were lysed in NP-40 buffer and HCK was immunoprecipitated from the whole cell lysates with an anti-HCK antibody.

[1] = system: MDA-MB-231 breast cancer cells; assay: Flow cytometric apoptosis assay (MC540 binding / PI permeability); assay type: cell-based, human; details: for Apoptotic fraction [AF] with MC540+/PI+ advanced stage apoptosis: 24 hours
From the text: Loose packing of membrane phospholipid head groups and cell shrinkage precede DNA fragmentation in apoptotic cells, thereby providing MC540 binding as an early marker for apoptosis (Uckun F. M., et al. Clin. Cancer Res. 1998, 4, 901-912; and Kuo, E. A. J. Med. Chem. 1996, 39, 4608-4621). Plasma membrane permeability to propidium iodide (PI, Sigma) develops at a later stage of apoptosis (Uckun F. M., et al. Clin. Cancer Res. 1998, 4, 901-912; and Kuo, E. A. J. Med. Chem. 1996, 39, 4608-4621). MC540 binding and PI permeability were simultaneously measured in breast cancer cells 24 hours after exposure to leflunomide analogs, as described (Uckun F. M., et al. Clin. Cancer Res. 1998, 4, 901-912. Stock solutions of MC540 and PI, each at 1 mg/mL, were passed through a 0.22 μm filter and stored at 4° C. in the dark. Shortly before analysis, suspensions containing 1×10^6 cells were suspended in 5 μg/mL MC540 and 10 μg/mL PI and kept in the dark at 4° C. Whole cells were analyzed with a FACS Calibur or FACS Vantage flow cytometer (Becton Dickinson, San Jose, Calif.). All analyses were done using 488 nm excitation from an argon laser. MC540 and PI emissions were split with a 600 nm short pass dichroic mirror and a 575 nm band pass filter was placed in front of one photomultiplier tube to measure MC540 emission and a 635 nm band pass filter was used for PI emission.
Loose packing of membrane phospholipid head groups and cell shrinkage precede DNA fragmentation in apoptotic cells, thereby providing MC540 binding as an early marker for apoptosis (Uckun, F. M. et al., Science, 1995, 267, 886-891). MC540 binding and propidium iodide (PI) permeability of MDA-MB-231 breast cancer cells were simultaneously measured before and after a 24 hour treatment with 100 μM or 500 μM LFM-A12. Whole cells were analyzed with a FACStar Plus flow cytometer (Becton Dickinson, San Jose, Calif.).

Row | IC50 (EGFR tyrosine kinase) [µM] | IC50 (HCK; HCK, cell-free, read-out: Inhibition IC50) [µM] | SMILES | effect on enzymatic activity of HCK (HCK) | Apoptotic fraction [AF] with MC540+/PI+ advanced stage apoptosis ([1]; MDA-MB-231, 100 μM) [%] | Apoptotic fraction [AF] with MC540+/PI+ advanced stage apoptosis ([1]; MDA-MB-231, 500 μM) [%] | induction of apoptosis ([1]; MDA-MB-231, 24 hours)
1 | 1.7 | > 350 | C/C(O)=C(\C#N)C(=O)Nc1ccc(OC(F)(F)F)cc1 [LFM-A12, α-Cyano-β-hydroxy-β-methyl-N-[4-(trifluoromethoxy)phenyl]-propenamide] | did not affect the enzymatic activity; also recorded: lack of inhibition | 54 | 85 | 
2 | 5.4 |  | CC(O)=C(C#N)C(=O)Nc1ccc(C(F)(F)F)cc1 [LFM, α-Cyano-β-hydroxy-β-methyl-N-[4-(trifluoromethyl)phenyl]-propenamide, reference compound] | did not affect the enzymatic activity; also recorded: lack of inhibition |  |  | albeit to a lesser extent, also induced apoptosis
